Test results as given in PMC10817943 (Nature Communications, 2024).
Read-outs that look alike come from different tables or passages of the source.

How the values were obtained:
[1] = system: M. smegmatis mc^2155 reporter strain harboring PrecA-LUX; conditions: RecA reporter, ciprofloxacin 0.06 µg/mL, MPA 0.125 µg/mL
[2] = system: M. smegmatis mc^2155 reporter strain harboring PradA-LUX; conditions: RadA reporter, ciprofloxacin 0.06 µg/mL, MPA 0.125 µg/mL

Compound O=C(O)c1cn(C2CC2)c2cc(N3CCNCC3)c(F)cc2c1=O [ciprofloxacin, Ciprofloxacin, reference compound] has a luminescence induction ([1]; elapsed time 0:00:00) of 1225 RLU, a luminescence induction ([1]; elapsed time 3:00:00) of 9623 RLU and a luminescence induction ([1]; elapsed time 6:00:00) of 25614 RLU. For the same compound, the luminescence induction ([1]; elapsed time 9:00:00) was 37445 RLU, the luminescence induction ([1]; elapsed time 12:00:00) was 44651 RLU and the luminescence induction ([1]; elapsed time 15:00:00) was 48781 RLU. The luminescence induction ([1]; elapsed time 18:00:00) was 52120 RLU, the luminescence induction ([1]; elapsed time 21:00:00) was 57807 RLU and the luminescence induction ([1]; elapsed time 24:00:00) was 68911 RLU. The luminescence induction ([1]; elapsed time 27:00:00) was 89348 RLU, the luminescence induction ([1]; elapsed time 30:00:00) was 122834 RLU and the luminescence induction ([1]; elapsed time 33:00:00) was 178492 RLU. The luminescence induction ([1]; elapsed time 36:00:00) was 273065 RLU, the luminescence induction ([1]; elapsed time 39:00:00) was 424870 RLU and the luminescence induction ([1]; elapsed time 42:00:00) was 486228 RLU. For the same compound, the luminescence induction ([1]; elapsed time 45:00:00) was 462582 RLU, the luminescence induction ([1]; elapsed time 48:00:00) was 485841 RLU and the luminescence induction ([1]; elapsed time 51:00:00) was 408474 RLU. It also gave a luminescence induction ([1]; elapsed time 54:00:00) of 246511 RLU, a luminescence induction ([1]; elapsed time 57:00:00) of 125742 RLU and a luminescence induction ([1]; elapsed time 60:00:00) of 64490 RLU. It also gave a luminescence induction ([1]; elapsed time 63:00:00) of 37695 RLU, a luminescence induction ([1]; elapsed time 66:00:00) of 23762 RLU and a luminescence induction ([1]; elapsed time 69:00:00) of 17429 RLU. For the same compound, the luminescence induction ([1]; elapsed time 72:00:00) was 13645 RLU, the luminescence induction ([1]; elapsed time 75:00:00) was 10589 RLU and the luminescence induction ([1]; elapsed time 78:00:00) was 8697 RLU. It also gave a luminescence induction ([1]; elapsed time 81:00:00) of 7129 RLU, a luminescence induction ([1]; elapsed time 84:00:00) of 6189 RLU and a luminescence induction ([1]; elapsed time 87:00:00) of 5163 RLU. It also gave a luminescence induction ([2]; elapsed time 0:00:00) of 123 RLU, a luminescence induction ([2]; elapsed time 3:00:00) of 1612 RLU and a luminescence induction ([2]; elapsed time 6:00:00) of 2073 RLU. The luminescence induction ([2]; elapsed time 9:00:00) was 2126 RLU, the luminescence induction ([2]; elapsed time 12:00:00) was 1993 RLU and the luminescence induction ([2]; elapsed time 15:00:00) was 2134 RLU. The luminescence induction ([2]; elapsed time 18:00:00) was 2689 RLU, the luminescence induction ([2]; elapsed time 21:00:00) was 4077 RLU and the luminescence induction ([2]; elapsed time 24:00:00) was 6491 RLU. The luminescence induction ([2]; elapsed time 27:00:00) was 10903 RLU, the luminescence induction ([2]; elapsed time 30:00:00) was 19150 RLU and the luminescence induction ([2]; elapsed time 33:00:00) was 33571 RLU. For the same compound, the luminescence induction ([2]; elapsed time 36:00:00) was 56395 RLU, the luminescence induction ([2]; elapsed time 39:00:00) was 67383 RLU and the luminescence induction ([2]; elapsed time 42:00:00) was 103238 RLU. For the same compound, the luminescence induction ([2]; elapsed time 45:00:00) was 85422 RLU, the luminescence induction ([2]; elapsed time 48:00:00) was 47660 RLU and the luminescence induction ([2]; elapsed time 51:00:00) was 21645 RLU. It also gave a luminescence induction ([2]; elapsed time 54:00:00) of 9619 RLU, a luminescence induction ([2]; elapsed time 57:00:00) of 4843 RLU and a luminescence induction ([2]; elapsed time 60:00:00) of 2928 RLU. For the same compound, the luminescence induction ([2]; elapsed time 63:00:00) was 1993 RLU, the luminescence induction ([2]; elapsed time 66:00:00) was 1543 RLU and the luminescence induction ([2]; elapsed time 69:00:00) was 1199 RLU. It also gave a luminescence induction ([2]; elapsed time 72:00:00) of 998 RLU, a luminescence induction ([2]; elapsed time 75:00:00) of 761 RLU and a luminescence induction ([2]; elapsed time 78:00:00) of 636 RLU. It also gave a luminescence induction ([2]; elapsed time 81:00:00) of 547 RLU, a luminescence induction ([2]; elapsed time 84:00:00) of 460 RLU and a luminescence induction ([2]; elapsed time 87:00:00) of 387 RLU.
